Laboratory results from ChEMBL document CHEMBL1201862, “PubChem BioAssay data set” (2004).
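48-hour exposure; five concentrations; linearly interpolated endpoints. At the GI50, growth is halved.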 The source made the active and inactive calls. Rule as the data show it: active = GI50 up to about 1.1 µM and inactive = higher.

Columns and labels:
Experiment in all cases: NCI-60 cell line screen, 48 h
[1] = tested on: SNB-19
[2] = tested on: NCI-H460
[3] = tested on: Hs-578T
[4] = tested on: SN12C
[5] = tested on: MCF7
[6] = tested on: SF-539
[7] = tested on: HOP-62
[8] = tested on: NCI-H226
[9] = tested on: U-251
[10] = tested on: HCC 2998
[11] = tested on: UO-31
[12] = tested on: NCI/ADR-RES
[13] = tested on: UACC-257
[14] = tested on: COLO 205
[15] = tested on: CCRF-CEM
[16] = tested on: RXF 393
[17] = tested on: SR
[18] = tested on: 786-0
[19] = tested on: LOX IMVI
[20] = tested on: A498

SMILES | GI50 [1] | GI50 [2] | GI50 [3] | GI50 [4] | GI50 [5] | GI50 [6] | GI50 [7] | GI50 [8] | GI50 [9] | GI50 [10] | GI50 [11] | GI50 [12] | GI50 [13] | GI50 [14] | GI50 [15] | GI50 [16] | GI50 [17] | GI50 [18] | GI50 [19] | GI50 [20]
NCC(=O)Nc1ccc(Cl)cc1C(=O)c1ccc[nH]1 | > 100 µM (inactive) | 10.4 µM (inactive) | > 67.5 µM (inactive) | > 36.3 µM (inactive) | 6.31 µM (inactive) | > 32.8 µM (inactive) | > 94.2 µM (inactive) | 46.3 µM (inactive) | 15.2 µM (inactive) | 31.8 µM (inactive) | 21.7 µM (inactive) | 49 µM (inactive) | > 100 µM (inactive) | > 86.1 µM (inactive) | 3.42 µM (inactive) | > 82.2 µM (inactive) | 8.99 µM (inactive) | > 83.4 µM (inactive) | 9.95 µM (inactive) | > 63.1 µM (inactive)
CC(=O)OC1OC(c2ccoc2)C[C@@]12C1CCC3O[C@]3(C)[C@]1(C)[C@H](OC(C)=O)[C@H](OC(C)=O)[C@H]2C (stereo not given in full) | > 37.5 µM (inactive) | > 37.5 µM (inactive) | > 37.5 µM (inactive) | > 37.5 µM (inactive) | > 37.5 µM (inactive) | > 37.5 µM (inactive) | > 37.5 µM (inactive) | > 37.5 µM (inactive) | > 37.5 µM (inactive) | > 37.5 µM (inactive) | > 37.5 µM (inactive) | > 37.5 µM (inactive) | > 37.5 µM (inactive) | > 37.5 µM (inactive) | 11.2 µM (inactive) | > 37.5 µM (inactive) | 18.1 µM (inactive) | > 37.5 µM (inactive) | 28.1 µM (inactive) | > 37.5 µM (inactive)
Cc1sc2[nH]c(=O)oc(=O)c2c1C | > 100 µM (inactive) | > 100 µM (inactive) | 28.6 µM (inactive) | > 76.2 µM (inactive) | 26.1 µM (inactive) | 58.3 µM (inactive) | 72.8 µM (inactive) | > 74.5 µM (inactive) | 51.4 µM (inactive) | > 88.5 µM (inactive) | 33 µM (inactive) | 35.1 µM (inactive) | > 100 µM (inactive) | 59 µM (inactive) | 39.6 µM (inactive) | > 100 µM (inactive) | 37.8 µM (inactive) | 70.3 µM (inactive) | 44.6 µM (inactive) | > 100 µM (inactive)
COc1ccc(/N=C2\C(=O)C3=C(OC(C)(C)CC3)c3ccccc32)cc1 | 0.916 µM (active) | 1.5 µM (inactive) | 1.63 µM (inactive) | 0.889 µM (active) | 0.9 µM (active) | 0.005 µM (active) | 0.91 µM (active) | 6.37 µM (inactive) | 0.841 µM (active) | 1.51 µM (inactive) | 0.755 µM (active) | 0.802 µM (active) | 0.968 µM (active) | 2.93 µM (inactive) | 1.48 µM (inactive) | 1.09 µM (active) | 0.935 µM (active) | 0.971 µM (active) | 0.481 µM (active) | 7.91 µM (inactive)
NC(=O)c1nnn(Cc2cc(Cl)c(C(=O)c3ccc(Cl)cc3)c(Cl)c2)c1N [CARBOXYAMIDOTRIAZOLE] | 24.4 µM (inactive) | 14.8 µM (inactive) | 39 µM (inactive) | 29.2 µM (inactive) | 11.4 µM (inactive) | 29.2 µM (inactive) | 25.7 µM (inactive) | 33 µM (inactive) | 18.2 µM (inactive) | > 9.1 µM (inactive) | 25.6 µM (inactive) | 32.1 µM (inactive) | 7.98 µM (inactive) | 27.8 µM (inactive) | 31 µM (inactive) | 23.7 µM (inactive) | 6.75 µM (inactive) | 27.9 µM (inactive) | 22 µM (inactive) | 13.7 µM (inactive)
